This series in a line: Effect of TB4 on bodyweight of db/db mice. Type of series: in vivo, mouse. Conditions: for Weight: db/db mice, mean ± SE. On the procedure:
All experimental procedures were carried out in accordance with NIH Guide for the Care and Use of Laboratory Animals and approved by the institutional Animal Care and Use Committee of Henry Ford Hospital. Male BKS.Cg-m+/+Lepr^db/J(db/db) mice (Jackson Laboratories, Bar Harbor, Me.) aged 20 weeks were used. Age-matched heterozygotes mice (db/m), a non-penetrant genotype (Jackson Laboratories), were used as the control animals.
db/db mice at age 20 weeks were treated with Tβ4 at a dose of 6 mg/kg or 24 mg/kg (RegeneRx, Inc, intraperitoneal injection, i.p.), every 3 days for 4 weeks (n=10/group). db/db mice (n=10/group) at the same age treated with same volume of saline were used as a control group. Age-matched db/m mice treated with Tβ4 (6 mg/kg i.p. every 3 days, n=10/group) or saline (n=10/group) were used as additional control groups. All mice were sacrificed 8 weeks after the initial treatment. Doses of Tβ4 were selected based on published studies^13.

For the compound `CC[C@H](C)[C@H](NC(=O)[C@H](CCC(=O)O)NC(=O)[C@H](C)NC(=O)[C@H](CCSC)NC(=O)[C@H](CC(=O)O)NC(=O)[C@@H]1CCCN1C(=O)[C@H](CCCCN)NC(=O)[C@H](CC(=O)O)NC(=O)[C@H](CO)NC(C)=O)C(=O)N[C@@H](CCC(=O)O)C(=O)N[C@@H](CCCCN)C(=O)N[C@@H](Cc1ccccc1)C(=O)N[C@@H](CC(=O)O)C(=O)N[C@@H](CCCCN)C(=O)N[C@@H](CO)C(=O)N[C@@H](CCCCN)C(=O)N[C@@H](CC(C)C)C(=O)N[C@@H](CCCCN)C(=O)N[C@@H](CCCCN)C(=O)N[C@H](C(=O)N[C@@H](CCC(=O)O)C(=O)N[C@H](C(=O)N[C@@H](CCC(N)=O)C(=O)N[C@@H](CCC(=O)O)C(=O)N[C@@H](CCCCN)C(=O)N[C@@H](CC(N)=O)C(=O)N1CCC[C@H]1C(=O)N[C@@H](CC(C)C)C(=O)N1CCC[C@H]1C(=O)N[C@@H](CO)C(=O)N[C@@H](CCCCN)C(=O)N[C@@H](CCC(=O)O)C(=O)N[C@H](C(=O)N[C@H](C(=O)N[C@@H](CCC(=O)O)C(=O)N[C@@H](CCC(N)=O)C(=O)N[C@@H](CCC(=O)O)C(=O)N[C@@H](CCCCN)C(=O)N[C@@H](CCC(N)=O)C(=O)N[C@@H](C)C(=O)NCC(=O)N[C@@H](CCC(=O)O)C(=O)N[C@@H](CO)C(=O)O)[C@@H](C)CC)[C@@H](C)O)[C@@H](C)O)[C@@H](C)O` [Tβ4, thymosin beta 4], the Weight is, setting by setting: (TB4 6 mg/kg i.p. every 3 days for 4 weeks, 0 w (before the treatment)) 59.5 ± 0.9 g; (TB4 6 mg/kg, 2 w) 57.1 ± 1.1 g; (TB4 6 mg/kg, 4 w) 56.2 ± 1.2 g; (TB4 6 mg/kg, 6 w) 53.7 ± 1.5 g; (TB4 6 mg/kg, 8 w) 53.0 ± 1.7 g; (TB4 24 mg/kg i.p. every 3 days for 4 weeks, 0 w (before the treatment)) 58.9 ± 1.1 g. Also, the Weight amounted to 58.1 ± 1.2 g (TB4 24 mg/kg, 2 w); 55.7 ± 1.5 g (TB4 24 mg/kg, 4 w); 56.0 ± 1.4 g (TB4 24 mg/kg, 6 w); 54.8 ± 1.6 g (TB4 24 mg/kg, 8 w). Under “db/db mouse treated with Tβ4 (Table 1)”, the animal body weight entry is “did not significantly alter”.
